Source: paper PMC8496750, “Identification of the organic anion transporting polypeptides responsible for the hepatic uptake of the major metabolite of epyrifenacil, S‐3100‐CA, in mice” (Pharmacology Research & Perspectives, 2021)

Experiment: ^14C‐plasma, liver, and kidney distribution study with or without OATP inhibitors
Assay type: in vivo, Crl:CD1(ICR) mice
Settings: for Kidney/plasma ratio of ^14C / Liver/plasma ratio of ^14C / ^14C‐concentration in liver: 2 h; for Liver/plasma ratio of ^14C‐concentration: oral or intraperitoneal co‐administration of DGX
Description: Crl:CD1(ICR) mice at the age of 7 weeks were purchased from Charles River Laboratories Japan, Inc., Hino Breeding Center. The mice at the age of 8 or 9 weeks were dosed after completing a 7‐day quarantine period and an additional 0‐ to 7‐day acclimatization period. All animal experiments were conducted in accordance with the Guidance for the Care and Use of Laboratory Animals in our laboratory, which corresponds to the Guidelines for Proper Conduct of Animal Experiments (Science Council of Japan). Animals were maintained under constant environmental conditions: room temperature, 21−25°C; relative humidity, 55% ±15%; ventilation, 10 air exchanges per hour; and artificial lighting, from 8:00 am to 8:00 pm. The animals were provided with pelleted diet and water ad libitum. […] All animals were euthanized by bleeding from the abdominal artery under anesthesia.
[^14C]Epyrifenacil was isotopically diluted with the unlabeled test compound to adjust the specific activity to 5.00 MBq/mg. After evaporation of the solvent under nitrogen gas flow, labeled material was suspended in 0.5% (w/v) methylcellulose solution at a concentration of 1 mg/5 ml by grinding in a mortar. The suspension was stored frozen until the start of dosing. The radiochemical purity of the dosing suspension was analyzed by radio‐HPLC and was confirmed to be >99%. […] These dosing suspensions were stored in a refrigerator until dosing commenced.
Three mice per sex at 8 weeks old were given a single oral dose of [^14C]epyrifenacil at 1 mg/kg with or without co‐administration of OATP inhibitors. […] At 2 h after administration of [^14C]epyifenacil, the animals were euthanized by whole blood collection from the abdominal aorta under anesthesia with isoflurane. The sampling time point was selected as the time around T max based on the result of the blood ^14C‐concentration study. Then, the liver and kidney were dissected out, and the amount of ^14C was measured. Aliquots of heparinized blood samples were separated into blood cells and plasma by centrifugation at 2000g for 10 min at 4°C. The total weight of the liver and kidney was determined for each animal. Two aliquots of plasma and tissue samples (approximately 0.05–0.1 g) were weighed in a glass vial, and the radioactivity was measured.

[1] = Female, epyrifenacil 1 mg/kg p.o. + Digoxin 100 mg/kg i.p.
[2] = Female, epyrifenacil 1 mg/kg p.o. + Digoxin 200 mg/kg p.o.
[3] = Female, epyrifenacil 1 mg/kg p.o. + Rifampicin 200 mg/kg p.o.
[4] = Female, epyrifenacil 1 mg/kg p.o., no inhibitor
[5] = Female, 2 h after epyrifenacil 1 mg/kg p.o. + Digoxin 100 mg/kg i.p.
[6] = Female, 2 h after epyrifenacil 1 mg/kg p.o. + Digoxin 100 mg/kg i.p., listed as [^14C]Epyrifenacil
[7] = Female, 2 h after epyrifenacil 1 mg/kg p.o. + Digoxin 200 mg/kg p.o.
[8] = Female, 2 h after epyrifenacil 1 mg/kg p.o. + Digoxin 200 mg/kg p.o., listed as [^14C]Epyrifenacil
[9] = Female, 2 h after epyrifenacil 1 mg/kg p.o. + Rifampicin 200 mg/kg p.o.
[10] = Female, 2 h after epyrifenacil 1 mg/kg p.o. + Rifampicin 200 mg/kg p.o., listed as [^14C]Epyrifenacil
[11] = Female, 2 h after epyrifenacil 1 mg/kg p.o., no inhibitor
[12] = Female, 2 h after epyrifenacil 1 mg/kg p.o., no inhibitor, listed as [^14C]Epyrifenacil
[13] = Male, epyrifenacil 1 mg/kg p.o. + Digoxin 100 mg/kg i.p.
[14] = Male, epyrifenacil 1 mg/kg p.o. + Digoxin 200 mg/kg p.o.
[15] = Male, epyrifenacil 1 mg/kg p.o. + Rifampicin 200 mg/kg p.o.
[16] = Male, epyrifenacil 1 mg/kg p.o., no inhibitor
[17] = Male, 2 h after epyrifenacil 1 mg/kg p.o. + Digoxin 100 mg/kg i.p.
[18] = Male, 2 h after epyrifenacil 1 mg/kg p.o. + Digoxin 100 mg/kg i.p., listed as [^14C]Epyrifenacil
[19] = Male, 2 h after epyrifenacil 1 mg/kg p.o. + Digoxin 200 mg/kg p.o.
[20] = Male, 2 h after epyrifenacil 1 mg/kg p.o. + Digoxin 200 mg/kg p.o., listed as [^14C]Epyrifenacil
[21] = Male, 2 h after epyrifenacil 1 mg/kg p.o. + Rifampicin 200 mg/kg p.o.
[22] = Male, 2 h after epyrifenacil 1 mg/kg p.o. + Rifampicin 200 mg/kg p.o., listed as [^14C]Epyrifenacil
[23] = Male, 2 h after epyrifenacil 1 mg/kg p.o., no inhibitor
[24] = Male, 2 h after epyrifenacil 1 mg/kg p.o., no inhibitor, listed as [^14C]Epyrifenacil

CCOC(=O)COc1ncccc1Oc1cc(-n2c(=O)cc(C(F)(F)F)n(C)c2=O)c(F)cc1Cl [Epyrifenacil, ethyl[(3‐{2‐chloro‐4‐fluoro‐5‐[3‐methyl‐2,6‐dioxo‐4‐(trifluoromethyl)‐3,6‐dihydropyrimidin‐1(2H)‐yl]phenoxy}pyridin‐2‐yl)oxy]acetate]
Kidney/plasma ratio of ^14C [1]: (2.2) | Liver/plasma ratio of ^14C [1]: (41) | Kidney/plasma ratio of ^14C [2]: (1.6) | Liver/plasma ratio of ^14C [2]: (43) | Liver/plasma ratio of ^14C (Female, epyrifenacil 1 mg/kg p.o. + Digoxin 200 mg/kg p.o., listed as [^14C]epyrifenacil): ca. 43 | Kidney/plasma ratio of ^14C [3]: (0.60) | Liver/plasma ratio of ^14C [3]: (4.0) | Liver/plasma ratio of ^14C (Female, epyrifenacil 1 mg/kg p.o. + Rifampicin 200 mg/kg p.o., listed as [^14C]epyrifenacil): ~4 | Kidney/plasma ratio of ^14C [4]: (1.3) | Liver/plasma ratio of ^14C [4]: (35) | Liver/plasma ratio of ^14C (Female, epyrifenacil 1 mg/kg p.o., no inhibitor, listed as [^14C]epyrifenacil): ~35 | ^14C‐Concentration, Kidney [5]: 0.184 ± 0.0360 μg eq. of epyrifenacil/g tissue | ^14C‐Concentration, Liver [5]: 3.390 ± 1.9870 μg eq. of epyrifenacil/g tissue | ^14C‐Concentration, Plasma [5]: 0.082 ± 0.0574 μg eq. of epyrifenacil/g tissue | ^14C‐Concentration, Kidney [6]: 0.184 μg eq. of epyrifenacil/g tissue | ^14C‐Concentration, Liver [6]: 3.390 μg eq. of epyrifenacil/g tissue | ^14C‐Concentration, Plasma [6]: 0.082 μg eq. of epyrifenacil/g tissue | ^14C‐Concentration, Kidney [7]: 0.086 ± 0.0096 μg eq. of epyrifenacil/g tissue | ^14C‐Concentration, Liver [7]: 2.344 ± 0.4524 μg eq. of epyrifenacil/g tissue | ^14C‐Concentration, Plasma [7]: 0.054 ± 0.0118 μg eq. of epyrifenacil/g tissue | ^14C‐Concentration, Kidney [8]: 0.086 μg eq. of epyrifenacil/g tissue | ^14C‐Concentration, Liver [8]: 2.344 μg eq. of epyrifenacil/g tissue | ^14C‐Concentration, Plasma [8]: 0.054 μg eq. of epyrifenacil/g tissue | ^14C‐Concentration, Kidney [9]: 0.130 ± 0.0548 μg eq. of epyrifenacil/g tissue | ^14C‐Concentration, Liver [9]: 0.880 ± 0.4160 μg eq. of epyrifenacil/g tissue | ^14C‐Concentration, Plasma [9]: 0.217 ± 0.1551 μg eq. of epyrifenacil/g tissue | ^14C‐Concentration, Kidney [10]: 0.130 μg eq. of epyrifenacil/g tissue | ^14C‐Concentration, Liver [10]: 0.880 μg eq. of epyrifenacil/g tissue | ^14C‐Concentration, Plasma [10]: 0.217 μg eq. of epyrifenacil/g tissue | ^14C‐Concentration, Kidney [11]: 0.190 ± 0.0511 μg eq. of epyrifenacil/g tissue | ^14C‐Concentration, Liver [11]: 5.136 ± 1.1225 μg eq. of epyrifenacil/g tissue | ^14C‐Concentration, Plasma [11]: 0.147 ± 0.0642 μg eq. of epyrifenacil/g tissue | ^14C‐Concentration, Kidney [12]: 0.190 μg eq. of epyrifenacil/g tissue | ^14C‐Concentration, Liver [12]: 5.136 μg eq. of epyrifenacil/g tissue | ^14C‐Concentration, Plasma [12]: 0.147 μg eq. of epyrifenacil/g tissue | Kidney/plasma ratio of ^14C [13]: (1.7) | Liver/plasma ratio of ^14C [13]: (67) | Kidney/plasma ratio of ^14C [14]: (2.6) | Liver/plasma ratio of ^14C [14]: (97) | Liver/plasma ratio of ^14C (Male, epyrifenacil 1 mg/kg p.o. + Digoxin 200 mg/kg p.o., listed as [^14C]epyrifenacil): ca. 97 | Kidney/plasma ratio of ^14C [15]: (0.96) | Liver/plasma ratio of ^14C [15]: (11) | Kidney/plasma ratio of ^14C [16]: (1.3) | Liver/plasma ratio of ^14C [16]: (73) | Liver/plasma ratio of ^14C (Male, epyrifenacil 1 mg/kg p.o., no inhibitor, listed as [^14C]epyrifenacil): ca. 73 | ^14C‐Concentration, Kidney [17]: 0.140 ± 0.0527 μg eq. of epyrifenacil/g tissue | ^14C‐Concentration, Liver [17]: 5.527 ± 1.3453 μg eq. of epyrifenacil/g tissue | ^14C‐Concentration, Plasma [17]: 0.083 ± 0.0027 μg eq. of epyrifenacil/g tissue | ^14C‐Concentration, Kidney [18]: 0.140 μg eq. of epyrifenacil/g tissue | ^14C‐Concentration, Liver [18]: 5.527 μg eq. of epyrifenacil/g tissue | ^14C‐Concentration, Plasma [18]: 0.083 μg eq. of epyrifenacil/g tissue | ^14C‐Concentration, Kidney [19]: 0.044 ± 0.0051 μg eq. of epyrifenacil/g tissue | ^14C‐Concentration, Liver [19]: 1.647 ± 0.7217 μg eq. of epyrifenacil/g tissue | ^14C‐Concentration, Plasma [19]: 0.017 ± 0.0064 μg eq. of epyrifenacil/g tissue | ^14C‐Concentration, Kidney [20]: 0.044 μg eq. of epyrifenacil/g tissue | ^14C‐Concentration, Liver [20]: 1.647 μg eq. of epyrifenacil/g tissue | ^14C‐Concentration, Plasma [20]: 0.017 μg eq. of epyrifenacil/g tissue | ^14C‐Concentration, Kidney [21]: 0.144 ± 0.0794 μg eq. of epyrifenacil/g tissue | ^14C‐Concentration, Liver [21]: 1.671 ± 1.2478 μg eq. of epyrifenacil/g tissue | ^14C‐Concentration, Plasma [21]: 0.151 ± 0.0791 μg eq. of epyrifenacil/g tissue | ^14C‐Concentration, Kidney [22]: 0.144 μg eq. of epyrifenacil/g tissue | ^14C‐Concentration, Liver [22]: 1.671 μg eq. of epyrifenacil/g tissue | ^14C‐Concentration, Plasma [22]: 0.151 μg eq. of epyrifenacil/g tissue | ^14C‐Concentration, Kidney [23]: 0.124 ± 0.0180 μg eq. of epyrifenacil/g tissue | ^14C‐Concentration, Liver [23]: 6.763 ± 0.1014 μg eq. of epyrifenacil/g tissue | ^14C‐Concentration, Plasma [23]: 0.092 ± 0.0066 μg eq. of epyrifenacil/g tissue | ^14C‐Concentration, Kidney [24]: 0.124 μg eq. of epyrifenacil/g tissue | ^14C‐Concentration, Liver [24]: 6.763 μg eq. of epyrifenacil/g tissue | ^14C‐Concentration, Plasma [24]: 0.092 μg eq. of epyrifenacil/g tissue | Liver/plasma ratio of ^14C‐concentration (female): 41–43 | ^14C‐concentration in liver (females, co‐administration of RIF 200 mg/kg oral): 0.880 ppm | ^14C‐concentration in liver (females, epyrifenacil 1 mg/kg p.o., no inhibitor): 5.136 ± 1.1225 ppm | Liver/plasma ratio of ^14C‐concentration (male): 67–97 | ^14C‐concentration in liver (males, co‐administration of RIF 200 mg/kg oral): 1.671 ppm | ^14C‐concentration in liver (males, epyrifenacil 1 mg/kg p.o., no inhibitor, ppm = µg eq. of epyrifenacil/g): 6.763 ± 0.1014 ppm
